The text below walks through data of PubChem BioAssay AID248 (DTP/NCI, 2004).

For the assay, the system named is L1210 leukemia ip in BDF1 mice, survival T/C. The assay is described as follows: NCI In Vivo Anticancer Drug Screen. Data for tumor model L1210 Leukemia (intraperitoneal) in B6D2F1 (BDF1) mice. To be noted: endpoint: mean survival time, higher = longer survival. The method in brief:
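Transplantable tumor model; survival measured in treated vs vehicle control mice. Value = treated/control.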

[1] abbreviates: dose: 25.0 mg/kg/injection, schedule: Q01DX009 (ip), vehicle: saline with Tween-80.
Setting [2] is: dose: 50.0 mg/kg/injection, schedule: Q01DX009 (ip), vehicle: saline with Tween-80.
[3] abbreviates: dose: 100.0 mg/kg/injection, schedule: Q04DX003 (ip), vehicle: saline with Tween-80.
Where [4] appears, read: dose: 100.0 mg/kg/injection, schedule: Q01DX009 (ip), vehicle: saline with Tween-80.
[5] abbreviates: dose: 150.0 mg/kg/injection, schedule: Q04DX003 (ip), vehicle: Klucel (hydroxypropylcellulose) (HPC).
[6] abbreviates: dose: 100.0 mg/kg/injection, schedule: Q04DX003 (ip), vehicle: Klucel (hydroxypropylcellulose) (HPC).
Setting [7] is: dose: 200.0 mg/kg/injection, schedule: Q04DX003 (ip), vehicle: Klucel (hydroxypropylcellulose) (HPC).
Setting [8] is: dose: 400.0 mg/kg/injection, schedule: Q04DX003 (ip), vehicle: Klucel (hydroxypropylcellulose) (HPC).

SMILES strings stand for the structures. Values joined by “and” are separate entries in the source; they are usually repeats but may differ in a detail not shown here. Equal entries are not always repeated. Inconclusive results and toxic doses are left out.

With `COCCCNP(=O)(OC(C)C)OC(C)C`, the T/C (dose: 100.0 mg/kg/injection, schedule: Q01DX001 (ip), vehicle: acetone) was 109 % of control; the T/C (dose: 100.0 mg/kg/injection, schedule: Q04DX003 (ip), vehicle: acetone) is 97 % of control; the T/C (dose: 200.0 mg/kg/injection, schedule: Q01DX001 (ip), vehicle: acetone) is 98 % of control; the T/C (dose: 200.0 mg/kg/injection, schedule: Q04DX003 (ip), vehicle: acetone) was 95 % of control; the T/C (dose: 400.0 mg/kg/injection, schedule: Q01DX001 (ip), vehicle: acetone) was 110 % of control; the T/C (dose: 400.0 mg/kg/injection, schedule: Q04DX003 (ip), vehicle: acetone) was 95 % of control.
Take `CC(=O)C(C(C)=O)C(c1ccc2c(c1)OCO2)C(C(C)=O)C(C)=O`: the T/C was 93 % of control (dose: 12.5 mg/kg/injection, schedule: Q01DX009 (ip), vehicle: saline with Tween-80); 92 % of control under setting [1]; 93 % of control and 92 % of control under setting [2]; 86 % of control under setting [3].
`CC(C)(CBr)COS(=O)(=O)c1ccc(Br)cc1`: the T/C under setting [2] was 89 % of control and the T/C under setting [4] was 91 % of control.
For `O=C(Nc1cccc(C(F)(F)F)c1)Nc1ccccc1C(F)(F)F`, the T/C (dose: 100.0 mg/kg/injection, schedule: Q01DX009 (ip), vehicle: gum acacia) was 101 % of control; the T/C (dose: 200.0 mg/kg/injection, schedule: Q01DX009 (ip), vehicle: gum acacia) is 101 % of control; the T/C (dose: 400.0 mg/kg/injection, schedule: Q01DX009 (ip), vehicle: gum acacia) was 104 % of control.
Regarding `CS(=O)(=O)Nc1ccccc1`, the T/C is, setting by setting: (dose: 75.0 mg/kg/injection, schedule: Q04DX003 (ip), vehicle: Klucel (hydroxypropylcellulose) (HPC)) 98 % of control; (dose: 100.0 mg/kg/injection, schedule: Q01DX001 (ip), vehicle: Klucel (hydroxypropylcellulose) (HPC)) 96 % of control; under setting [5], 93 % of control; (dose: 200.0 mg/kg/injection, schedule: Q01DX001 (ip), vehicle: Klucel (hydroxypropylcellulose) (HPC)) 101 % of control; (dose: 300.0 mg/kg/injection, schedule: Q04DX003 (ip), vehicle: Klucel (hydroxypropylcellulose) (HPC)) 93 % of control; (dose: 400.0 mg/kg/injection, schedule: Q01DX001 (ip), vehicle: Klucel (hydroxypropylcellulose) (HPC)) 96 % of control.
For the molecule `C#CCOC(=O)C1C2CCC(O2)C1C(=O)O` (stereo unspecified), the T/C runs as follows: (dose: 1.25 mg/kg/injection, schedule: Q01DX009 (ip), vehicle: saline) 100 % of control; (dose: 2.5 mg/kg/injection, schedule: Q01DX009 (ip), vehicle: saline) 109 % of control.
`CCNCCNCC(Cc1ccccc1)c1ccccc1` (stereo unspecified): the T/C was 86 % of control (dose: 25.0 mg/kg/injection, schedule: Q04DX002 (ip), vehicle: saline); 105 % of control (dose: 50.0 mg/kg/injection, schedule: Q04DX002 (ip), vehicle: saline); 93 % of control and 92 % of control (dose: 100.0 mg/kg/injection, schedule: Q04DX002 (ip), vehicle: saline).
Turning to `Ic1ccc(N=Cc2cccs2)cc1`, the T/C by setting is: (dose: 50.0 mg/kg/injection, schedule: Q01DX001 (ip), vehicle: carboxymethylcellulose (CMC)) 100 % of control; (dose: 100.0 mg/kg/injection, schedule: Q01DX001 (ip), vehicle: carboxymethylcellulose (CMC)) 94 % of control; (dose: 200.0 mg/kg/injection, schedule: Q01DX001 (ip), vehicle: carboxymethylcellulose (CMC)) 92 % of control; (dose: 400.0 mg/kg/injection, schedule: Q01DX001 (ip), vehicle: carboxymethylcellulose (CMC)) 94 % of control.
As to `CCCC(=O)N(CC(C)C)CC(C)C`, the T/C is 101 % of control under setting [6], 95 % of control under setting [7] and 97 % of control under setting [8].
Consider `CC(=O)Oc1ccc([N+](=O)[O-])cc1C(OC(C)=O)OC(C)=O`, for which the T/C was 90 % of control (dose: 55.0 mg/kg/injection, schedule: Q01DX Z (ip), vehicle: methylcellulose (MC)); 96 % of control (dose: 83.0 mg/kg/injection, schedule: Q01DX Z (ip), vehicle: methylcellulose (MC)); 93 % of control (dose: 125.0 mg/kg/injection, schedule: Q01DX Z (ip), vehicle: methylcellulose (MC)).
`CCc1ccccc1NC(=O)Nc1ccccc1`: the T/C runs as follows: (dose: 100.0 mg/kg/injection, schedule: Q01DX009 (ip), vehicle: Klucel (hydroxypropylcellulose) (HPC)) 94 % of control; under setting [6], 103 % of control; (dose: 200.0 mg/kg/injection, schedule: Q01DX009 (ip), vehicle: Klucel (hydroxypropylcellulose) (HPC)) 98 % of control; under setting [7], 94 % of control; (dose: 400.0 mg/kg/injection, schedule: Q01DX009 (ip), vehicle: Klucel (hydroxypropylcellulose) (HPC)) 105 % of control; under setting [8], 95 % of control.
As for `C=CCOCCC#N`, the T/C is, setting by setting: under setting [1], 95 % of control; under setting [2], 97 % of control; under setting [4], 100 % of control.
On to `COc1cc(/C=C2\C(=O)C=C(C)CC2(C)C)ccc1O`, for which the T/C by setting is: (dose: 25.0 mg/kg/injection, schedule: Q04DX003 (ip), vehicle: saline with Tween-80) 92 % of control; (dose: 50.0 mg/kg/injection, schedule: Q04DX003 (ip), vehicle: saline with Tween-80) 89 % of control; under setting [3], 89 % of control; (dose: 200.0 mg/kg/injection, schedule: Q04DX003 (ip), vehicle: saline with Tween-80) 90 % of control.
With `CS(=O)(=O)OCCN(CCOS(C)(=O)=O)c1ccc(C=Nc2ccc(-c3csc(-c4ccc(Cl)cc4)n3)cc2)cc1`, the T/C (dose: 66.0 mg/kg/injection, schedule: Q04DX003 (ip), vehicle: Klucel (hydroxypropylcellulose) (HPC)) was 122 % of control and the T/C under setting [5] is 153 % of control.
